According to patent publication US9095567B2, “Vaccine formulations” (priority 2010, dated 2015):

Experiments:
Type in all cases: cell-based
[1] = test system: S. aureus; test: Multi-challenge method, S. aureus decay (non-linear regression analysis)
Experimental: (§1) To represent the worst reasonable case of contamination that may occur in practice during the repeated use of a multi-dose presentation, WHO requires safety testing with deliberate exposure to multiple contamination events using bacterial strains, Pseudomonas Aeruginosa (“PA”), Staphylococcus Aureus (“SA”), Escherichia coli (“EC”) and Bacillus subtilis (“BA”). Formulations are spiked with 5×10^3 CFU/ml of each organism at times 0, 6 hours, 24 hours, 7 days and 14 days after initial challenge and stored either at 2-8° C. or at 22-24° C. to mimic the potential storage conditions in practice.
(§2) To assess the appropriateness of WHO multi-dose Open Vial Policy of vaccines in multiple immunization sessions for up to maximum of four weeks, experimental design provided by WHO was implemented. In this study, the effectiveness of Thimerosal was evaluated at the concentration that is present in the majority of U.S. licensed vaccines (0.01%), as well as at a higher concentration of 0.02%. To represent the worst reasonable case of contamination that may occur in practice during the repeated use of a multi-dose presentation, and to test WHO requirements, Prev(e)nar 13 vaccine formulations with 0.01 or 0.02% Thimerosal or with 5.0 mg/dose of 2-PE were deliberately exposed to multiple contamination events using WHO recommended bacterial strains, P. aeruginosa, S. aureus, E. coli and B. subtilis. Formulations were spiked with 5×10^3 CFU/ml of each organism at times 0, 6 hours, 24 hours, 7 days and 14 days after initial challenge and stored either at 2-8° C. or at 22-24° C. to mimic the potential storage conditions in practice. Saline formulation containing 0.02% Thimerosal was also used as a control to evaluate the potential impact of Prev(e)nar 13 on the antimicrobial efficacy of Thimerosal in the formulation.
As shown in the non-linear regression analysis of decay in the viability of S. aureus is summarized in FIG. 12, the rate of decay of S. aureus was substantially slower ([…], with 50% decay in 30.28 days) when formulation was stored at 2-8° C. compared to that stored at 22-24° C. (−1.39 log10 decay per day, with 50% decay in 6.2 days) (FIG. 12).

[2] = test system: P. aeruginosa, S. aureus, E. coli and B. subtilis; test: Preservative effectiveness test, multi-challenge method, all challenge organisms
Experimental: as §1, §2

[3] = test system: Staphylococcus aureus (ATCC #6538); test: Preservative effectiveness test, single challenge
Excerpt: (§3) To test for preservative effectiveness, aliquots of vaccine were inoculated with the following organisms:
(§4) Thirty milliliters (ml) of each vaccine formulation with and without Thimerosal or 2-PE at indicated concentrations or saline containing Thimerosal at 0.02% were inoculated in triplicates with a suspension of each test organism to achieve an inoculum density of approximately 10^5 to 10^6 CFU/ml at time 0 (CFU=colony forming units). […] Samples were mixed to ensure even distribution of challenged organisms. Another 30 ml of vaccine in triplicate (with and without preservative) were used as a negative control and spiked with the culture media alone to evaluate the inherent contamination that might be present in the sample or media. Each of the three series of vaccines, and positive and negative controls, was then separately incubated at 20 to 25° C. Aliquots (1 ml) of the challenged samples and controls (or their appropriate serial ten fold dilutions) were enumerated by plate count in duplicates at time 0 and at intervals of 6 hours, 24 hours, 7 days, 14 days and 28 days post-inoculation.
(§5) USP 29 NF 24 Supplement 2 (USP) requires that, after an inoculation of bacterial micro-organism(s), there is at least 1.0 log reduction from the initial calculated count (i.e., at time of inoculation) at 7 days, at least 3.0 log reduction at 14 days from the previous value measured and no increase at 28 days from the previous measured value. For yeast and fungi, the USP requirement is for there to be no increase from the time of inoculation to 7, 14 and 28 days.
(§6) EP requirements are more stringent. EP 5th Edition 5.6 (5.1.3) requirements for parenteral and ophthalmic preparations has two components: Category A and Category B. Category A (EP-A) requires, for bacteria, at least 2.0 log reduction from the initial calculated count at 6 hours after inoculation, at least 3.0 log reduction at 24 hours from the previous measured value, and no recovery at 28 days. Category B (EP-B) requires, for bacteria, at least 1.0 log reduction at 24 hours from the initial calculated count, at least 3.0 log reduction at 7 days from the previous value measured and not more than 0.5 log increase at 28 days from the previous value measured (i.e., no increase). For yeast and fungi, Category A requires at least 2.0 log reduction at 7 days and no increase from the previous value measured at 28 days, and Category B requires at least 1.0 log reduction at 14 days and no increase from the previous value measured at 28 days.
(§7) Plates containing <300 CFU for bacteria or <100 CFU for yeast or mold were used during enumeration. For single challenge studies, arithmetic average count of all surviving micro-organisms in triplicate and on duplicate plates (6 values per time point) plus their diluted samples were measured and normalized as CFU/ml. The results are expressed as mean log10 CFU/ml reduction (compared to time 0). In this case, the count of surviving micro-organisms is evaluated at time 0 as the baseline and compared to incubation time of 6 hours, 24 hours, 7 days, 14 days and 28 days.

[4] = test system: Candida albicans (ATCC#10231); test: Preservative effectiveness test, single challenge
Excerpt: as §3, §4, §5, §6, §7

[5] = Prev(e)nar 13 formulation, single challenge, 20 to 25° C.
[6] = 0.01% Thimerosal in Prev(e)nar 13, stored at 2-8° C.
[7] = 0.01% Thimerosal in Prev(e)nar 13, stored at 22-24° C.
[8] = 0.02% Thimerosal in Prev(e)nar 13, 22-24° C. storage
[9] = 0.02% Thimerosal in saline control formulation without vaccine
[10] = 0.01% Thimerosal in Prev(e)nar 13, single challenge
[11] = 0.02% Thimerosal in saline (no Prev(e)nar 13) versus vaccine formulation, single challenge

## OCCOc1ccccc1 [2-PE, 2-phenoxyethanol]
[1]; 5 mg/dose of 2-PE in Prev(e)nar 13, single or multiple challenge, either storage temperature
  inactivation of S. aureus viability compared with Thimerosal: stronger
[1]; vaccine formulations with 2-PE, non-linear regression analysis
  rate of S. aureus decay (50% decay and average slope) compared with Thimerosal: faster
[2]; 5 mg/dose 2-PE in Prev(e)nar 13
  EP-B criteria under multiple challenge: met
[2]; 5 mg/dose 2-PE, multi-challenge method, regardless of storage temperature, all organisms tested
  preservative effectiveness compared with 0.01% Thimerosal: superior
[2]; 2-PE at 3.5 to 5 mg/dose
  rate of antimicrobial effectiveness compared to Thimerosal: much higher
[3]; 5.0 mg/dose 2-PE in Prev(e)nar 13, single challenge
  time to reduction of S. aureus to baseline after inoculation: 24 h
[3]; [5]
  EP (EP-B) vaccine safety requirements, S aureus: Fails
  USP vaccine safety requirements, S aureus: Meets
[4]; [5]
  EP (EP-B) vaccine safety requirements, C. albicans: Fails
  USP vaccine safety requirements, C. albicans: Meets

## C[CH2][Hg][S]c1ccccc1C(=O)[O-].[Na+] [Thimerosal]
[1]; 0.01% Thimerosal in Prev(e)nar 13, multiple challenges, particularly at 2-8° C.
  reduction of S. aureus: slow
[1]; [6]
  rate of decay of S. aureus: −5.98 log10 decay per day
  time to 50% decay of S. aureus: 30.28 days
[1]; [7]
  rate of decay of S. aureus: −1.39 log10 decay per day
  time to 50% decay of S. aureus: 6.2 days
[1]; 0.02% Thimerosal, multiple challenges
  rate of decay of S. aureus in saline formulation versus vaccine formulation: more pronounced
[2]; 0.01% Thimerosal in Prev(e)nar 13, multiple challenges
  antibacterial effectiveness by organism: highest on B. subtilis followed by P. aeruginosa
[2]; [8]
  EP requirements EP-A applied to multi-challenge studies: did not meet
  EP requirements EP-B applied to multi-challenge studies: did not meet
[2]; [9]
  acceptance criteria of EP-A when multiply challenged: did not meet
  acceptance criteria of EP-B when multiply challenged: did not meet
[2]; Thimerosal 0.02% versus 0.01%, multiple challenges
  preservative effectiveness, concentration dependence: more effective
[2]; Thimerosal in Prev(e)nar 13, particularly against S. aureus and E. coli
  rate of inactivation: slow
[2]; Thimerosal, any version tested
  EP-B criteria under multiple challenge: no version of Thimerosal was able to do so
[2]; Thimerosal, storage at 22-24° C. versus 2-8° C., multiple challenges
  preservative effectiveness, temperature dependence: more effective
[3]; [10]
  inhibition of S. aureus relative to P. aeruginosa and A. niger: weaker
[3]; [11]
  growth inhibitory effectiveness against S. aureus: slightly improved
[3]; Thimerosal in Prev(e)nar 13, single challenge
  decline of S. aureus: slow decline
[4]; [10]
  inhibition of C. albicans relative to P. aeruginosa and A. niger: weaker
[4]; [11]
  growth inhibitory effectiveness against C. albicans: slightly improved
[4]; 0.02% Thimerosal versus 0.01% in Prev(e)nar 13, single challenge
  reduction of contamination levels, C. albicans: more pronounced
